Here are results for 1 compound from patent US7662812B2, “Diazabicyclic aryl derivatives and their use as chinolinergic ligands at nicotinic acetylcholine receptors” (Neurosearch A/S, priority 2005, dated 2010).

Structures are written as SMILES.

The assay has as its target T1, α7-subtype of nicotinic receptors (Rattus norvegicus, UniProt Q05941).
T1 construct: Cerebral cortices from male Wistar rats (150-250 g) are homogenised; from tissue; host or cells: rat cerebral cortex membrane homogenate
The experiment in a line: In vitro inhibition of 3H-α-bungarotoxine binding in rat brain. Particulars: rat cerebral cortex homogenate, 3H-α-bungarotoxine 2 nM, 2 hours at 37° C.

T1 sequence (Q05941 23-502): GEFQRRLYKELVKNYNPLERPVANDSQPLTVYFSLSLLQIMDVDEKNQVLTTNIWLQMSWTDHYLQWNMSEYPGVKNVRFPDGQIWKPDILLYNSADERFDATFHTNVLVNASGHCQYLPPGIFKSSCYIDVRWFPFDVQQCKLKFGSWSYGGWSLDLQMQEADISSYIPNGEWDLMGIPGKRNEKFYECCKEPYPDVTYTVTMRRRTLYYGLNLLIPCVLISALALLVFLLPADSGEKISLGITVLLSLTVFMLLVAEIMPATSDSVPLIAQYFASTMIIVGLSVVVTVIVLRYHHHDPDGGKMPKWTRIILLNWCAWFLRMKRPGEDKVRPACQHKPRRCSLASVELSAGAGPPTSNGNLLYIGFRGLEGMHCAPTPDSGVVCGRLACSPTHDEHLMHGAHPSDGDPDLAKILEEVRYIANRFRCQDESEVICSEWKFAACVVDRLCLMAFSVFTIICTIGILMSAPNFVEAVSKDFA

Regarding `CN1C2CCC1CN(c1ccc(C#Cc3ccccc3)nn1)C2` [Compound B1, 8-Methyl-3-(6-phenylethynyl-pyridazin-3-yl)-3,8-diaza-bicyclo[3.2.1]octane], the IC50 turned out to be 470 nM.
